Assay results taken from PubChem BioAssay (NCI).
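The compound was tested at five concentrations on cells cultured in 96-well plates, with a 48-hour exposure period. TGI: concentration producing complete growth inhibition.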

Columns and labels:
Assay in all cases: NCI tumour cell line growth inhibition, 48 h
[1] = test system: M14 melanoma
[2] = test system: ACHN renal
[3] = test system: DMS 273 small cell lung
[4] = test system: OVCAR-8 ovarian
[5] = test system: SNB-75 CNS
[6] = test system: A498 renal
[7] = test system: SR leukemia
[8] = test system: OVCAR-3 ovarian
[9] = test system: HOP-62 NSCLC
[10] = test system: CCRF-CEM leukemia
[11] = test system: SW-620 colon
[12] = test system: CAKI-1 renal
[13] = test system: A549 NSCLC
[14] = test system: K-562 leukemia
[15] = test system: UACC-62 melanoma
[16] = test system: OVCAR-4 ovarian
[17] = test system: RXF-631 renal
[18] = test system: MOLT-4 leukemia
[19] = test system: SK-MEL-2 melanoma
[20] = test system: HT29 colon
[21] = test system: NCI-H23 lung
[22] = test system: HOP-92 NSCLC
[23] = test system: EKVX NSCLC
[24] = test system: KM12 colon
[25] = test system: UACC-257 melanoma
[26] = test system: U251 CNS
[27] = test system: HCT-15 colon
[28] = test system: IGROV1 ovarian
[29] = test system: RXF 393 renal
[30] = test system: KM20L2 colon
[31] = test system: SK-OV-3 ovarian
[32] = test system: 786-0 renal
[33] = test system: SF-295 CNS
[34] = test system: UO-31 renal
[35] = test system: LXFL 529 NSCLC
[36] = test system: RPMI-8226 leukemia
[37] = test system: SF-539 CNS
[38] = test system: NCI-H460 lung
[39] = test system: M19-MEL melanoma
[40] = test system: DLD-1 colon
[41] = test system: HCT-116 colon
[42] = test system: SNB-19 CNS
[43] = test system: XF 498 CNS
[44] = test system: COLO 205 colon
[45] = test system: SK-MEL-28 melanoma
[46] = test system: HCC-2998 colon
[47] = test system: HL-60(TB) leukemia
[48] = test system: HOP-18 NSCLC
[49] = test system: SN12C renal
[50] = test system: OVCAR-5 ovarian
[51] = test system: SK-MEL-5 melanoma
[52] = test system: SF-268 CNS
[53] = test system: LOX IMVI melanoma
[54] = test system: NCI-H226 lung
[55] = test system: MALME-3M melanoma
[56] = test system: DMS 114 small cell lung
[57] = test system: TK-10 renal
[58] = test system: SNB-78 CNS
[59] = test system: NCI-H522 lung
[60] = test system: NCI/ADR-RES ovarian
[61] = test system: P388 leukemia
[62] = test system: SN12K1 renal
[63] = test system: MCF7 breast
[64] = test system: P388/ADR leukemia

## COC1/C(=C\C(C)=O)c2ccccc2N1C(C)=O (stereo not given)
[1]
  TGI: > 100 µM
[2]
  TGI: > 100 µM
[3]
  TGI: > 100 µM
[4]
  TGI: > 100 µM
[5]
  TGI: > 100 µM
[6]
  TGI: > 100 µM
[7]
  TGI: > 100 µM
[8]
  TGI: > 100 µM
[9]
  TGI: > 100 µM
[10]
  TGI: > 100 µM
[11]
  TGI: > 100 µM
[12]
  TGI: > 100 µM
[13]
  TGI: > 100 µM
[14]
  TGI: > 100 µM
[15]
  TGI: > 100 µM
[16]
  TGI: > 100 µM
[17]
  TGI: > 100 µM
[18]
  TGI: > 100 µM
[19]
  TGI: > 100 µM
[20]
  TGI: > 100 µM
[21]
  TGI: > 100 µM
[22]
  TGI: > 100 µM
[23]
  TGI: > 100 µM
[24]
  TGI: > 100 µM
[25]
  TGI: > 100 µM
[26]
  TGI: > 100 µM
[27]
  TGI: > 100 µM
[28]
  TGI: > 100 µM
[29]
  TGI: > 100 µM
[30]
  TGI: > 100 µM
[31]
  TGI: > 100 µM
[32]
  TGI: > 100 µM
[33]
  TGI: > 100 µM
[34]
  TGI: > 100 µM
[35]
  TGI: > 100 µM
[36]
  TGI: > 100 µM
[37]
  TGI: > 100 µM
[38]
  TGI: > 100 µM
[39]
  TGI: > 100 µM
[40]
  TGI: > 100 µM
[41]
  TGI: > 100 µM
[42]
  TGI: > 100 µM
[43]
  TGI: > 100 µM
[44]
  TGI: > 100 µM
[45]
  TGI: > 100 µM
[46]
  TGI: > 100 µM
[47]
  TGI: > 100 µM
[48]
  TGI: > 100 µM
[49]
  TGI: > 100 µM

## COC(=O)C(CCC1(C)OCCO1)=[N+]=[N-]
[1]
  TGI: > 100 µM
[50]
  TGI: > 100 µM
[2]
  TGI: > 100 µM
[51]
  TGI: > 100 µM
[3]
  TGI: > 100 µM
[4]
  TGI: > 100 µM
[5]
  TGI: > 100 µM
[6]
  TGI: > 100 µM
[7]
  TGI: > 100 µM
[8]
  TGI: > 100 µM
[9]
  TGI: > 100 µM
[52]
  TGI: > 100 µM
[53]
  TGI: > 100 µM
[10]
  TGI: > 100 µM
[11]
  TGI: > 100 µM
[13]
  TGI: > 100 µM
[14]
  TGI: > 100 µM
[54]
  TGI: > 100 µM
[16]
  TGI: > 100 µM
[17]
  TGI: > 100 µM
[18]
  TGI: > 100 µM
[19]
  TGI: > 100 µM
[20]
  TGI: > 100 µM
[21]
  TGI: > 100 µM
[55]
  TGI: > 100 µM
[23]
  TGI: > 100 µM
[24]
  TGI: > 100 µM
[56]
  TGI: > 100 µM
[57]
  TGI: > 100 µM
[25]
  TGI: > 100 µM
[26]
  TGI: > 100 µM
[27]
  TGI: > 100 µM
[28]
  TGI: > 100 µM
[29]
  TGI: > 100 µM
[30]
  TGI: > 100 µM
[31]
  TGI: > 100 µM
[32]
  TGI: > 100 µM
[33]
  TGI: > 100 µM
[34]
  TGI: > 100 µM
[35]
  TGI: > 100 µM
[58]
  TGI: > 100 µM
[37]
  TGI: > 100 µM
[38]
  TGI: > 100 µM
[40]
  TGI: > 100 µM
[41]
  TGI: > 100 µM
[42]
  TGI: > 100 µM
[43]
  TGI: > 100 µM
[44]
  TGI: > 100 µM
[59]
  TGI: > 100 µM
[45]
  TGI: > 100 µM
[46]
  TGI: > 100 µM
[47]
  TGI: > 100 µM
[48]
  TGI: > 100 µM
[49]
  TGI: > 100 µM

## COc1cc(O)c(Cc2ccccc2O)c(O)c1C(=O)CCc1ccccc1
[50]
  TGI: 21.8 µM
[51]
  TGI: 9.36 µM
[3]
  TGI: 13.1 µM
[60]
  TGI: 18.9 µM
[4]
  TGI: 28.1 µM
[5]
  TGI: 19.7 µM
[6]
  TGI: 14.4 µM
[8]
  TGI: 16.1 µM
[9]
  TGI: 9.89 µM
[52]
  TGI: 33.5 µM
[53]
  TGI: 22.9 µM
[10]
  TGI: 22.5 µM
[11]
  TGI: 29.4 µM
[12]
  TGI: 13 µM
[13]
  TGI: 21.8 µM
[14]
  TGI: 20 µM
[15]
  TGI: 19.1 µM
[61]
  TGI: 13.5 µM
[54]
  TGI: 32 µM
[62]
  TGI: 19.5 µM
[16]
  TGI: 18.5 µM
[63]
  TGI: 18 µM
[18]
  TGI: 10.5 µM
[19]
  TGI: 12.8 µM
[20]
  TGI: 33.4 µM
[21]
  TGI: 12 µM
[55]
  TGI: 15.8 µM
[22]
  TGI: 10.8 µM
[23]
  TGI: 22.5 µM
[24]
  TGI: 25.3 µM
[56]
  TGI: 14.5 µM
[64]
  TGI: 14 µM
[25]
  TGI: 16.1 µM
[26]
  TGI: 14.5 µM
[27]
  TGI: 19.9 µM
[28]
  TGI: 29.8 µM
[29]
  TGI: 18.9 µM
[30]
  TGI: 24.6 µM
[31]
  TGI: 18.2 µM
[33]
  TGI: 16.1 µM
[34]
  TGI: 23.4 µM
[58]
  TGI: 31.4 µM
[36]
  TGI: 9.8 µM
[37]
  TGI: 15.7 µM
[38]
  TGI: 12.2 µM
[39]
  TGI: 20.5 µM
[40]
  TGI: 30.7 µM
[41]
  TGI: 13.7 µM
[42]
  TGI: 26.4 µM
[43]
  TGI: 7.76 µM
[44]
  TGI: 16.5 µM
[59]
  TGI: 9.21 µM
[45]
  TGI: 27.2 µM
[46]
  TGI: 19.8 µM
[47]
  TGI: 20 µM
[48]
  TGI: 4.53 µM
[49]
  TGI: 17 µM
